Here are results for 27 compounds from patent US5942521A, “Quinolinone derivative and anti-allergic agent with said quinolinone derivative as the active ingredient” (Dainippon Ink and Chemicals, Inc., priority 1996, dated 1999).

Molecules are shown by their SMILES.

Assay [1] deals with passive cutaneous anaphylaxis (PCA) reaction. Nature of the assay: Effect on homologous passive cutaneous anaphylaxis (PCA) reaction in rats. As to conditions: Rattus norvegicus, po, 0.5 h, male wistar rats; for inhibition in vivo at 100 mg/kg: test compounds, 100 mg/kg p.o., 1 hour before induction of anaphylaxis. The format is in vivo. The method, then:
Effect on homologous passive cutaneous anaphylaxis (PCA) reaction in rats
This experimental animal model is caused by immediate type allergic reaction, namely, antigen-antibody reaction. In the following, the method of this pharmacological test will be explained.
Method: Male wistar rats (9 weeks old) were intradermally administered 0.05 ml of anti-serum against dinitrophenylated ascaris (DNP-As) into two sites on the shaved dorsal skin. 48 hours later, aminoquinolinone derivatives (test compounds) suspended in 0.5% methylcellulose (MC) were given orally at a dose of 100 mg/kg to the animals. 1 hour after administration of Test compounds, the animals were induced anaphylaxis by injection of saline (1 ml) dissolving 1 mg of trinitrophenylated ascaris (TNP-As) and 5 mg of Evans Blue into the tail vein of the animals. 30 minutes after induction of anaphylaxis, animals were anesthetized by ether and killed by bleeding, and were flayed dorsal skin. The leakage of dye was assessed by measuring the diameter (mean of shortest and longest diameter) of the blue spot on the inside surface of dorsal skin. As vehicle control group, only 0.5% MC solution was administered orally, and as positive control group, Tranilast suspended in 0.5% MC were administered orally at a dose of 200 mg/kg to the animals with the same method as the test compounds groups, The inhibition (%) of PCA reaction was calculated according to equation 1 and the result was shown in Table 1. Each experimental group consisted of 5 rats.
In the conditions of this experiment, it was considered that the compound, which inhibited PCA reaction by over forty (40) percent against that in vehicle control group, was evidently effective for immediate type allergy.
Inhibition (%)=(A-B)/A×100 (Equation 1)
A: leakage of dye in vehicle control group
B: leakage of dye in test compound group or positive control group

The test system of assay [2] is contact dermatitis induced by picryl chloride. Nature of the assay: Effect on contact dermatitis induced by picryl chloride in mice. As to conditions: for inhibition in vivo at 20 mg/kg: test compounds, 20 mg/kg p.o. 12 hours after challenge. The assay is classed as in vivo. The method, then: Effect on contact dermatitis induced by picryl chloride in mice
The delayed type hypersensitization is inhibited by steroid, but can not be effected by known anti-allergic agents. In the following, the method of the pharmacological test will be explained.
Method: Mice, shaved their abdominal skin on previous day, were immunized by applying 0.1 ml of acetone containing 7 mg of picryl chloride to the skin of the abdomen. 7 days after immunization, the thickness of the ear was measured with a dial thickness gauge, then mice were challenged by painting […] of 1% picryl chloride olive oil solution to each side skin of left ear. 24 hours after challenge, the thickness of the left ear was measured again. The compounds of the present invention (test compounds) suspended in 0.5% MC were forcibly administered orally at a dose of 20 mg/kg 12 hours after challenge. As vehicle control group, only 0.5% MC solution was administered orally, and as positive control group, Prednisolone, steroid hormone, was administered orally at a dose of 10 mg/kg and as negative control group, Tranilast was administered orally at a dose of 200 mg/kg.
Increase (%)=(A-B)/B×100 (Equation 2)
A: thickness of the ear at 24 hours after challenge
B: thickness of the ear before challenge
Inhibition (%)=(C-D)/C×100 (Equation 3)
C: The increase (%) in vehicle control group
D: The increase (%) in test compounds group, positive control group

[3] abbreviates: Mus musculus, po, ear thickness at 24 hours, read-out: Inhibition (%) of increase of ear thickness.

In assay [1], `C=CCOc1c(O)c2ccc(NC)cc2n(C)c1=O` [compound 29, 7-methylamino-3-(2-propenyloxy)-4-hydroxy-1-methyl-2(1H)-quinolinone] yielded an inhibition in vivo at 100 mg/kg of 42%. In addition, the inhibition in vivo at 20 mg/kg in assay [2] (setting [3]) worked out at 48%.
`CCOc1c(OC(C)=O)c(=O)n(C)c2cc(N)ccc12` [compound 20, 7-amino-3-acetoxy-4-ethoxy-1-methyl-2(1H)-quinolinone] showed an inhibition in vivo at 100 mg/kg in assay [1] of 41%. In addition, the inhibition in vivo at 20 mg/kg in assay [2] (setting [3]) came to 43%.
Compound `COc1c(OC(C)=O)c(=O)n(C)c2cc(N)ccc12` [compound 6, 7-amino-3-acetoxy-4-methoxy-1-methyl-2(1H)-quinolinone] registered an inhibition in vivo at 100 mg/kg in assay [1] of 46%. For the same compound, the inhibition in vivo at 20 mg/kg in assay [2] (setting [3]) amounted to 43%.
`CCCCn1c(=O)c(O)c(OC)c2ccc(N(C)C)cc21` [compound 36, 7-dimethylamino-3-hydroxy-4-methoxy-1-butyl-2(1H)-quinolinone] yielded an inhibition in vivo at 100 mg/kg in assay [1] of 41%. Also, the inhibition in vivo at 20 mg/kg in assay [2] (setting [3]) was 40%.
`CCCCCCCCOc1c(O)c2ccc(N)cc2n(C)c1=O` [compound 22, 7-amino-3-octyloxy-4-hydroxy-1-methyl-2(1H)-quinolinone] came in with an inhibition in vivo at 100 mg/kg in assay [1] of 57%. Moreover, the inhibition in vivo at 20 mg/kg in assay [2] (setting [3]) was determined as 55%.
`CCCCn1c(=O)c(O)c(OCC=C(C)C)c2ccc(NC)cc21` [compound 38, 7-methylamino-3-hydroxy-4-prenyloxy-1-butyl-2(1H)-quinolinone] registered an inhibition in vivo at 100 mg/kg in assay [1] of 40%. For the same compound, the inhibition in vivo at 20 mg/kg in assay [2] (setting [3]) was 37%.
In turn, `Cn1c(=O)c(O)c(O)c2ccc(N)cc21` [compound 8, 7-amino-3,4-dihydroxy-1-methyl-2(1H)-quinolinone] yielded an inhibition in vivo at 100 mg/kg in assay [1] of 48%. Also, the inhibition in vivo at 20 mg/kg in assay [2] (setting [3]) was 41%.
For `CCCCCCOc1c(O)c(=O)n(C)c2cc(N)ccc12` [compound 23, 7-amino-3-hydroxy-4-hexyloxy-1-methyl-2(1H)-quinolinone] the same measures were 44% and 41%.
As to `COc1c(OC(C)=O)c(=O)[nH]c2cc(N)ccc12` [compound 15, 7-amino-3-acetoxy-4-methoxy-2(1H)-quinolinone], the inhibition in vivo at 100 mg/kg in assay [1] is 41%. Moreover, the inhibition in vivo at 20 mg/kg in assay [2] (setting [3]) was determined as 40%.
For `CCCCCCOc1c(O)c2ccc(N(C)C)cc2n(CCCC)c1=O` [compound 35, 7-dimethylamino-3-hexyloxy-4-hydroxy-1-butyl-2(1H)-quinolinone] the same measures were 45% and 46%.
In assay [1], `CNc1ccc2c(OC)c(O)c(=O)n(C)c2c1` [compound 10, 7-methylamino-3-hydroxy-4-methoxy-1-methyl-2(1H)-quinolinone] yielded an inhibition in vivo at 100 mg/kg of 42%. Besides, in assay [2] (setting [3]), the inhibition in vivo at 20 mg/kg is 40%.
In turn, `CCCCCCCCOc1c(O)c(=O)n(C)c2cc(NC)ccc12` [compound 26, 7-methylamino-3-hydroxy-4-octyloxy-1-methyl-2(1H)-quinolinone] had an inhibition in vivo at 100 mg/kg in assay [1] of 41%. For the same compound, in assay [2] (setting [3]), the inhibition in vivo at 20 mg/kg amounted to 39%.
As to `CCCCCCOc1c(O)c2ccc(NC(=O)/C=C/c3cc(OC)c(O)c(OC)c3)cc2n(C)c1=O` [compound 43, 7-(4-hydroxy-3,5-dimethoxycinnamoylamino)-3-hexyloxy-4-hydroxy-1-methyl-2(1H)-quinolinone], the inhibition in vivo at 100 mg/kg in assay [1] worked out at 49%. Also, in assay [2] (setting [3]), the inhibition in vivo at 20 mg/kg turned out to be 53%.
Compound `CCCCn1c(=O)c(OCC=C(C)C)c(O)c2ccc(NC)cc21` [compound 37, 7-methylamino-3-prenyloxy-4-hydroxy-1-butyl-2(1H)-quinolinone] had an inhibition in vivo at 100 mg/kg in assay [1] of 42%. Moreover, the inhibition in vivo at 20 mg/kg in assay [2] (setting [3]) was determined as 45%.
The matching figures for `CCCCCCCCOc1c(O)c2ccc(NC(=O)c3ccccc3)cc2n(C)c1=O` [compound 49, 7-benzoylamino-3-octyloxy-4-hydroxy-1-methyl-2(1H1)-quinolinone]: 46% and 43%.
In assay [1], `CNc1ccc2c(O)c(OC/C=C(\C)CCC=C(C)C)c(=O)n(C)c2c1` [compound 31, 7-methylamino-3-geranyloxy-4-hydroxy-1-methyl-2(1H)-quinolinone] registered an inhibition in vivo at 100 mg/kg of 46%. In assay [2] (setting [3]), the inhibition in vivo at 20 mg/kg was found to be 45%.
The matching figures for `COc1c(O)c(=O)[nH]c2cc(N)ccc12` [compound 14, 7-amino-3-hydroxy-4-methoxy-2(1H)-quinolinone]: 44% and 38%.
On to `COc1ccc(/C=C/C(=O)Nc2ccccc2C(=O)O)cc1OC` [Tranilast, reference compound], for which the inhibition in vivo at 200 mg/kg in assay [1] (positive control Tranilast, 200 mg/kg p.o.) was 54%; in assay [2] (Mus musculus, po, negative control Tranilast, 200 mg/kg p.o., ear thickness at 24 hours, read-out: Inhibition (%) of increase of ear thickness) it was 6%. The “inhibition of delayed type hypersensitization (in words)” value in assay [2] (Tranilast, 200 mg/kg p.o.) is reported as “did not inhibit delayed type hypersensitization”.
`CCCCNc1ccc2c(OC)c(OC(C)=O)c(=O)[nH]c2c1` [compound 16, 7-butylamino-3-acetoxy-4-methoxy-2(1H)-quinolinone] had an inhibition in vivo at 100 mg/kg in assay [1] of 42%. For the same compound, the inhibition in vivo at 20 mg/kg in assay [2] (setting [3]) stood at 36%.
As for `CCCCCCOc1c(O)c2ccc(N(C)C)cc2n(C)c1=O` [compound 25, 7-dimethylamino-3-hexyloxy-4-hydroxy-1-methyl-2(1H)-quinolinone], the inhibition in vivo at 100 mg/kg in assay [1] was determined as 47%. The inhibition in vivo at 20 mg/kg in assay [2] (setting [3]) was 48%.
`CCCCCCCCOc1c(O)c2ccc(NCc3ccccc3)cc2n(C)c1=O` [compound 47, 7-benzylamino-3-octyloxy-4-hydroxy-1-methyl-2(1H)-quinolinone] showed an inhibition in vivo at 100 mg/kg in assay [1] of 40%. The inhibition in vivo at 20 mg/kg in assay [2] (setting [3]) is 48%.
`COc1c(O)c2ccc(N)cc2n(C)c1=O` [compound 19, 7-amino-3-methoxy-4-hydroxy-1-methyl-2(1H)-quinolinone] returned an inhibition in vivo at 100 mg/kg in assay [1] of 44%. Also, the inhibition in vivo at 20 mg/kg in assay [2] (setting [3]) amounted to 45%.
`CCCCCCCCOc1c(O)c2ccc(NC(C)=O)cc2n(C)c1=O` [compound 39, 7-acetylamino-3-octyloxy-4-hydroxy-1-methyl-2(1H)-quinolinone] gave an inhibition in vivo at 100 mg/kg in assay [1] of 50%. Further, in assay [2] (setting [3]), the inhibition in vivo at 20 mg/kg worked out at 48%.
In assay [1], `CCCCCCNc1ccc2c(O)c(OC)c(=O)n(C)c2c1` [compound 27, 7-hexylamino-3-methoxy-4-hydroxy-1-methyl-2(1H)-quinolinone] displayed an inhibition in vivo at 100 mg/kg of 45%. Besides, the inhibition in vivo at 20 mg/kg in assay [2] (setting [3]) was found to be 46%.
In turn, `CCCCCCOc1c(O)c(=O)n(C)c2cc(NCCCC)ccc12` [compound 28, 7-butylamino-3-hydroxy-4-hexyloxy-1-methyl-2(1H)-quinolinone] gave an inhibition in vivo at 100 mg/kg in assay [1] of 42%. Besides, the inhibition in vivo at 20 mg/kg in assay [2] (setting [3]) came out at 37%.
The compound `CCCCOc1c(O)c(=O)n(CCC)c2cc(N)ccc12` [compound 33, 7-amino-3-hydroxy-4-butyloxy-1-propyl-2(1H)-quinolinone] displayed an inhibition in vivo at 100 mg/kg in assay [1] of 40%. The inhibition in vivo at 20 mg/kg in assay [2] (setting [3]) was 40%.
With `CCCCCCCCOc1c(O)c2ccc(NC(=O)/C=C/c3ccc(O)c(OC)c3)cc2n(C)c1=O` [compound 45, 7-(4-hydroxy-3-methoxycinnamoylamino)-3-octyloxy-4-hydroxy-1-methyl-2(1H)-quinolinone], the inhibition in vivo at 100 mg/kg in assay [1] stood at 41%. The inhibition in vivo at 20 mg/kg in assay [2] (setting [3]) was 44%.
